This is an account of results in PMC4812366, “3,1-Benzothiazines, 1,4-Benzodioxines and 1,4-Benzoxazines as Inhibitors of Matriptase-2: Outcome of a Focused Screening Approach” (Pharmaceuticals, 2016).

Read-outs that look alike come from different tables or passages of the source.

Test [1] deals with T1, human matriptase-2 (Homo sapiens, UniProt Q8IU80).
T1 construct: The conditioned medium of HEK-MT2 cells was used as a source of matriptase-2 activity; expressed in transfected cells; host or cells: HEK-MT2 cells (conditioned medium, collected and concentrated)
T1 sequence (Q8IU80 577-811 limits assumed): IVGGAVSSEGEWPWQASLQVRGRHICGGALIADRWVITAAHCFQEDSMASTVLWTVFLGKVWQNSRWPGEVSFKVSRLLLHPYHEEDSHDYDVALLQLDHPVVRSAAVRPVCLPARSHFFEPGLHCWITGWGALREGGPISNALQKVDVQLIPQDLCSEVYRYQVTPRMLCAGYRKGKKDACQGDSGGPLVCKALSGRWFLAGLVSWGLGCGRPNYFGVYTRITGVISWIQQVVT
T1 sequence (Q8IU80 438-576 partner limits assumed): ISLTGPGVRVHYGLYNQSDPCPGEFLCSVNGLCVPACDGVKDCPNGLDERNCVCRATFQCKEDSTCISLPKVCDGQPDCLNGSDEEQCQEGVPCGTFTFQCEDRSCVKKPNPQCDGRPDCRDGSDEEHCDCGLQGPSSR
Description: Human matriptase-2 inhibition, fluorogenic substrate Boc-Gln-Ala-Arg-AMC, conditioned medium of HEK-MT2 cells. The following applies: for IC50: substrate 40 µM, pH 8.0, 37 °C; for matriptase-2 inhibitory activity in words: screening at single inhibitor concentration of 40 µM. The class given is biochemical. As to the method:
The conditioned medium of HEK-MT2 cells was used as a source of matriptase-2 activity and assay conditions were as follows. Assay buffer was 50 mM Tris–HCl, 150 mM NaCl, pH 8.0. The conditioned medium was collected and concentrated, and aliquots of the supernatant were stored at −20 °C. After thawing, it was diluted with assay buffer (1:10 or 1:20 depending on the enzyme activity) and kept at 0 °C not longer than 8 h. The assays were performed at a FLUOstar OPTIMA PlateReader (BMG Labtech, Ortenberg, Germany). A 10 mM stock solution of the fluorogenic substrate Boc-Gln-Ala-Arg-AMC (Bachem, Bubendorf, Switzerland) in DMSO was diluted with assay buffer. The final concentration of the substrate was 40 µM and of DMSO was 6%. The substrate concentration of 40 µM refers to 1.24 × Km. Into each well containing 163.8 µL buffer, 11.2 µL of an inhibitor solution in DMSO and 10 µL of a substrate solution (800 µM) were added and thoroughly mixed. At 37 °C the reaction was initiated by adding 15 µL of diluted conditioned medium and followed over 400 s. All measurements were performed in duplicate with a single inhibitor concentration of 40 µM. Active inhibitors were investigated in duplicate with five different concentrations. Benzamidine hydrochloride was purchased from Acros Organics (Geel, Belgium).
Progress curves were analyzed by linear regression. IC50 values were determined by nonlinear regression using the equation vs = v0/(1 + [I]/IC50), where vs is the steady-state rate, v0 is the rate in the absence of the inhibitor, and [I] is the inhibitor concentration. Standard errors of the mean (SEM) values refer to this nonlinear regression.

Another test deals with thrombin. To be noted: cited from earlier work; for thrombin inhibition relative to trypsin and factor Xa, in words: ref [39],[41].
Test [2] concerns the target T1, human matriptase-2. Description: Human matriptase-2 inhibition, fluorogenic substrate Boc-Gln-Ala-Arg-AMC, conditioned medium of HEK-MT2 cells. Format: biochemical. The following applies: substrate concentrations of 20, 30, 40, 50 and 60 µM.
Setting [3] is: Table 2, 2,3-dihydro-1,4-benzodioxines and 3,4-dihydro-2H-1,4-benzoxazines, values with SEM: duplicate, five inhibitor concentrations, limits: duplicate, single inhibitor concentration of 40 µM, read-out: IC50 (µM) ± SEM.
Where [4] appears, read: read-out: IC50 value for matriptase-2 inhibition.
Setting [5] is: Table 1, 4H-3,1-benzothiazin-4-ones, values with SEM: duplicate, five inhibitor concentrations, limits: duplicate, single inhibitor concentration of 40 µM, read-out: IC50 (µM) ± SEM.

Broadly, the IC50 is the concentration that gives 50% inhibition. With `N=C(N)c1ccc(OC[C@@H]2COc3ccc(N(Cc4ccccc4)C(=O)C(=O)O)cc3O2)cc1` [(R)-10], the IC50 at human matriptase-2 [1] (setting [3]) came out at 27.3 ± 2 µM. As to `N=C(N)c1ccc(OC[C@@H]2COc3cc(N(Cc4ccccc4)C(=O)C(=O)O)ccc3O2)cc1` [(R)-11], the 50% inhibitory concentration (IC50) at human matriptase-2 [1] (setting [3]) is 33.6 ± 1.1 µM. With `CCOC(=O)C1CCN(c2ccc(N3C[C@@H](CNCc4ccc(C(=N)N)cc4)OC3=O)cc2)CC1` [(R)-24], the IC50 at human matriptase-2 [1] (setting [3]) is greater than 40 µM. In addition, at human matriptase-2 [1], the “matriptase-2 inhibitory activity in words” value is “inactive”. For `N=C(N)c1ccc(OC[C@H]2COc3ccc(N(Cc4ccccc4)C(=O)C(=O)O)cc3O2)cc1` [(S)-10], the IC50 on human matriptase-2 [1] (setting [3]) is 16.7 ± 1.7 µM. On to `N=C(N)c1ccc(OC[C@H]2COc3cc(N(Cc4ccccc4)C(=O)C(=O)O)ccc3O2)cc1` [(S)-11], for which the IC50 at human matriptase-2 [1] (setting [3]) came to 29.8 ± 1.6 µM. Regarding `CCOC(=O)C(=O)N(Cc1ccccc1)c1ccc2c(c1)O[C@@H](COc1ccc(C(=N)N)cc1)CO2` [(S)-12, (S)-Ethyl 2-(benzyl(3-((4-carbamidoylphenoxy)methyl)-2,3-dihydrobenzo[b][1,4]dioxin-6-yl)amino)-2-oxoacetate], in the test on thrombin (ref [38]), the “thrombin inhibition in words” value was “highly potent”. Also, the half-inhibitory concentration (IC50) is 8.47 ± 0.76 µM on human matriptase-2 [1] (setting [3]) and less than 10 µM on human matriptase-2 [1] (setting [4]). With `N=C(N)c1ccccc1` [Benzamidine, reference compound], at human matriptase-2 [1], the “matriptase-2 inhibitory activity in words” value is recorded as “lack of inhibitory activity”. Moreover, the IC50 on human matriptase-2 [1] (setting [4]) was greater than 400 µM.

As to `CN(C)CCNC(=O)c1ccc2nc(NC(=O)c3ccccc3)sc(=O)c2c1` [Compound 1], at human matriptase-2 [1] (setting [5]), the IC50 came to 148 ± 28 µM. For `CN(C)CCNC(=O)c1ccc2c(=O)sc(NC(=O)c3ccccc3)nc2c1` [Compound 2], the IC50 at human matriptase-2 [1] (setting [5]) is greater than 160 µM. Moreover, the “matriptase-2 inhibitory activity in words” value on human matriptase-2 [1] is “loss of activity”. In the case of `CN1CCN(C(=O)c2ccc3nc(NC(=O)c4ccccc4)sc(=O)c3c2)CC1` [Compound 3], the half-inhibitory concentration (IC50) at human matriptase-2 [1] (setting [5]) was greater than 160 µM. The same measure, in the same setting: the value for `CN1CCN(C(=O)c2ccc3c(=O)sc(NC(=O)c4ccccc4)nc3c2)CC1` [Compound 4] was greater than 160 µM. As for `O=C(Nc1nc2ccc(C(=O)N3CCN(Cc4ccccc4)CC3)cc2c(=O)s1)c1ccccc1` [Compound 5], on human matriptase-2 [1] (setting [5]), the half-maximal inhibitory concentration (IC50) is greater than 160 µM. Also, the “matriptase-2 inhibitory activity in words” value on human matriptase-2 [1] was “inactive”.

Consider `O=C(Nc1nc2cc(C(=O)N3CCN(Cc4ccccc4)CC3)ccc2c(=O)s1)c1ccccc1` [Compound 6], for which the IC50 at human matriptase-2 [1] (setting [5]) is greater than 160 µM.

As for `NCc1ccc(C(=O)Nc2nc3ccccc3c(=O)s2)cc1` [Compound 7], the IC50 at human matriptase-2 [1] (setting [5]) is 119 ± 9 µM. Also, the “matriptase-2 inhibitory activity in words” value on human matriptase-2 [1] is “active”. For `CN1CCN(C(=O)c2ccc(C(=O)Nc3nc4ccccc4c(=O)s3)cc2)CC1` [Compound 8] the same measures were greater than 160 µM and “inactive”. For `O=C(Nc1nc2ccccc2c(=O)s1)c1ccc(C(=O)N2CCN(Cc3ccccc3)CC2)cc1` [Compound 9] the same measures were greater than 160 µM and “inactive”. Regarding `CN1CC(C)(COc2ccc(C(=N)N)cc2)Oc2cc(N(Cc3ccc(F)cc3)C(=O)C(=O)O)ccc21` (stereo not shown) [Compound 13], in the test on thrombin, the “thrombin inhibition relative to trypsin and factor Xa, in words” value was “inhibited thrombin better than trypsin and factor Xa”. For the same compound, the “thrombin inhibition in words” value in the test on thrombin (ref [39]) is “highly active”. Moreover, on human matriptase-2 [1] (setting [3]), the half-maximal inhibitory concentration (IC50) is greater than 40 µM. The “matriptase-2 inhibitory activity in words” value at human matriptase-2 [1] was “inactive”. As to `CN1CC(C)(COc2ccc(C(=N)N)cc2)Oc2ccc(N(Cc3cc(F)cc(F)c3)C(=O)C(=O)O)cc21` (stereo not shown) [Compound 14], the IC50 at human matriptase-2 [1] (setting [3]) was 35.8 ± 1.1 µM. Consider `CN1CC(C)(COc2ccc(C(=N)N)cc2)Oc2cc(N(CC(=O)O)Cc3cc(F)cc(F)c3)ccc21` (stereo not shown) [Compound 15], for which the “thrombin inhibition relative to trypsin and factor Xa, in words” value in the test on thrombin is “inhibited thrombin better than trypsin and factor Xa”. The IC50 at human matriptase-2 [1] (setting [3]) was determined as 25.8 ± 4 µM. Regarding `CN1CC(C)(COc2ccc(C(=N)N)cc2)Oc2cc(N(CC(=O)O)Cc3ccc(F)cc3)ccc21` (stereo not shown) [Compound 16], the “thrombin inhibition relative to trypsin and factor Xa, in words” value in the test with thrombin is “inhibited thrombin better than trypsin and factor Xa”. Also, the 50% inhibitory concentration (IC50) at human matriptase-2 [1] (setting [3]) stood at 13.6 ± 2.31 µM. Take `CN1CC(C)(COc2ccc(C(=N)N)cc2)Oc2ccc(N(CC(=O)O)Cc3ccc(F)cc3)cc21` (stereo not shown) [Compound 17]: the IC50 on human matriptase-2 [1] (setting [3]) came out at 11.2 ± 1.61 µM. Take `CCOC(=O)CN(Cc1ccc(F)cc1)c1ccc2c(c1)OC(C)(COc1ccc(C(=N)N)cc1)CN2C` (stereo not shown) [Compound 18]: the 50% inhibitory concentration (IC50) on human matriptase-2 [1] (setting [3]) came to 31.6 ± 2.69 µM. `CN1CC(C)(COc2ccc(C(=N)N)cc2)Oc2cc(NC(=O)CCC(=O)O)ccc21` (stereo not shown) [Compound 19]: on human matriptase-2 [1] (setting [3]), the concentration for half-maximal inhibition (IC50) stood at 38.8 ± 3.14 µM. Besides, the “matriptase-2 inhibitory activity in words” value at human matriptase-2 [1] is recorded as “moderately active”. Moreover, the “type of inhibition (Lineweaver-Burk plot)” value on human matriptase-2 [2] was “mixed type of inhibition”. Turning to `COC(=O)C(Cc1ccccc1)C(=O)Nc1ccc2c(c1)OC(C)(COc1ccc(C(=N)N)cc1)CN2C` (stereo not shown) [Compound 20], the half-maximal inhibitory concentration (IC50) at human matriptase-2 [1] (setting [3]) is 31.4 ± 3.6 µM. Also, the “matriptase-2 inhibitory activity in words” value on human matriptase-2 [1] was “moderately active”. With `CN1C(=O)C(OCc2ccc(C(=N)N)cc2)Oc2cc(C(=O)Nc3ccccc3)ccc21` (stereo not shown) [Compound 21], the IC50 at human matriptase-2 [1] (setting [3]) was determined as 42.6 ± 4.7 µM. Same read-out and setting: the value for `N=C(N)c1ccc(CN2C(=O)COc3cc(NC(=O)[C@H](N)Cc4ccccc4)ccc32)cc1` [Compound 22] was 30.9 ± 3.4 µM; that for `CCOC(=O)[C@H](CNC(=O)CN1C(=O)COc2cc(NC(=O)c3ccc(C(=N)N)cc3)ccc21)NS(=O)(=O)c1ccc(C)cc1` [Compound 23] was 20.5 ± 2 µM. For the compound `COc1ccc2cc(S(=O)(=O)NN(Cc3cccc(C(=N)N)c3)C(=O)N(C)C3CCCC3)ccc2c1` [Compound 25], the half-inhibitory concentration (IC50) at human matriptase-2 [1] (setting [3]) is greater than 40 µM. The “matriptase-2 inhibitory activity in words” value at human matriptase-2 [1] was “inactive”.
